Activity calls are given as the source filed them. No rule for the calls is given here.
Test system: CCRIS mutagenicity, Ames/micronucleus/aberration tests
Test: CCRIS mutagenicity studies
[1] = Test System: AMES SALMONELLA TYPHIMURIUM, Strain/Indicator: TA98, Metabolic Activation: NONE, Method: STANDARD PLATE
[2] = Test System: AMES SALMONELLA TYPHIMURIUM, Strain/Indicator: TA98, Metabolic Activation: RAT, LIVER, S-9, AROCLOR 1254, Method: STANDARD PLATE
[3] = Test System: AMES SALMONELLA TYPHIMURIUM, Strain/Indicator: TA100, Metabolic Activation: NONE, Method: STANDARD PLATE
[4] = Test System: AMES SALMONELLA TYPHIMURIUM, Strain/Indicator: TA100, Metabolic Activation: RAT, LIVER, S-9, AROCLOR 1254, Method: STANDARD PLATE
[5] = Test System: AMES SALMONELLA TYPHIMURIUM, Strain/Indicator: TA1535, Metabolic Activation: NONE, Method: STANDARD PLATE
[6] = Test System: AMES SALMONELLA TYPHIMURIUM, Strain/Indicator: TA1535, Metabolic Activation: RAT, LIVER, S-9, AROCLOR 1254, Method: STANDARD PLATE
[7] = Test System: AMES SALMONELLA TYPHIMURIUM, Strain/Indicator: TA1537, Metabolic Activation: NONE, Method: STANDARD PLATE
[8] = Test System: AMES SALMONELLA TYPHIMURIUM, Strain/Indicator: TA1537, Metabolic Activation: RAT, LIVER, S-9, AROCLOR 1254, Method: STANDARD PLATE
[9] = Test System: AMES SALMONELLA TYPHIMURIUM, Strain/Indicator: TA1538, Metabolic Activation: NONE, Method: STANDARD PLATE

CCCCOC(=O)c1cccc2cccnc12
mutagenic call [1]: inactive; negative | mutagenic call [2]: inactive; negative | mutagenic call [3]: inactive; negative | mutagenic call [4]: inactive; negative | mutagenic call [5]: inactive; negative | mutagenic call [6]: inactive; negative | mutagenic call [7]: inactive; negative | mutagenic call [8]: inactive; negative

CC(=O)O.CC(=O)O.[O]=[U]=[O]
mutagenic call (Test System: Chinese hamster ovary cells, Strain/Indicator: EM9 (HPRT)/6-Thioguanine, Metabolic Activation: None): active; positive

Cc1c2ccccc2c(C)c2c3c(ccc12)[C@H](O)[C@@H](O)C=C3
mutagenic call (Test System: CHINESE HAMSTER V-79, Strain/Indicator: V-79/6-THIOGUANINE, Metabolic Activation: CELL-MEDIATED, Method: STANDARD PLATE): active; positive | mutagenic call (Test System: CHINESE HAMSTER V-79, Strain/Indicator: V-79/OUABAIN, Metabolic Activation: CELL-MEDIATED, Method: STANDARD PLATE): active; positive

CC(C)(CO)[C@@H](O)C(=O)NCCC(=O)O
mutagenic call (Test System: AMES SALMONELLA TYPHIMURIUM, Strain/Indicator: TA97, Metabolic Activation: NONE, Method: PREINCUBATION): inactive; negative | mutagenic call (Test System: AMES SALMONELLA TYPHIMURIUM, Strain/Indicator: TA97, Metabolic Activation: RAT, LIVER, S-9, AROCLOR 1254, Method: PREINCUBATION): inactive; negative | mutagenic call (Test System: AMES SALMONELLA TYPHIMURIUM, Strain/Indicator: TA97A, Metabolic Activation: NONE, Method: PREINCUBATION): inactive; negative | mutagenic call (Test System: AMES SALMONELLA TYPHIMURIUM, Strain/Indicator: TA97A, Metabolic Activation: RAT, LIVER, S-9, AROCLOR 1254, Method: PREINCUBATION): inactive; negative | mutagenic call (Test System: AMES SALMONELLA TYPHIMURIUM, Strain/Indicator: TA102, Metabolic Activation: NONE, Method: PREINCUBATION): inactive; negative | mutagenic call (Test System: AMES SALMONELLA TYPHIMURIUM, Strain/Indicator: TA102, Metabolic Activation: RAT, LIVER, S-9, AROCLOR 1254, Method: PREINCUBATION): inactive; negative

O=C1c2c(O)ccc(O)c2C(=O)c2c(NCCNCCO)ccc(NCCNCCO)c21
mutagenic call (Test System: AMES SALMONELLA TYPHIMURIUM, Strain/Indicator: TA97, Metabolic Activation: NONE, Method: STANDARD PLATE): inactive; negative | mutagenic call (Test System: AMES SALMONELLA TYPHIMURIUM, Strain/Indicator: TA97, Metabolic Activation: RAT, LIVER, S-9, PHENOBARBITAL AND ALPHA-NAPHTHOFLAVONE, Method: STANDARD PLATE): inactive; negative | mutagenic call (Test System: AMES SALMONELLA TYPHIMURIUM, Strain/Indicator: TA97A, Metabolic Activation: NONE, Method: STANDARD PLATE): inactive; negative | mutagenic call [1]: active; positive | mutagenic call (Test System: AMES SALMONELLA TYPHIMURIUM, Strain/Indicator: TA98, Metabolic Activation: RAT, LIVER, S-9, PHENOBARBITAL AND ALPHA-NAPHTHOFLAVONE, Method: STANDARD PLATE): active; positive | mutagenic call [3]: inactive; negative | mutagenic call (Test System: AMES SALMONELLA TYPHIMURIUM, Strain/Indicator: TA100, Metabolic Activation: RAT, LIVER, S-9, PHENOBARBITAL AND ALPHA-NAPHTHOFLAVONE, Method: STANDARD PLATE): inactive; negative | mutagenic call [5]: inactive; negative | mutagenic call (Test System: AMES SALMONELLA TYPHIMURIUM, Strain/Indicator: TA1535, Metabolic Activation: RAT, LIVER, S-9, PHENOBARBITAL AND ALPHA-NAPHTHOFLAVONE, Method: STANDARD PLATE): inactive; negative | mutagenic call [9]: active; positive | mutagenic call (Test System: MOUSE LYMPHOMA, Strain/Indicator: L5178Y (TK+/TK-), Metabolic Activation: NONE, Method: SUSPENSION/PLATE): active; positive | mutagenic call (Test System: MOUSE LYMPHOMA, Strain/Indicator: L5178Y (TK+/TK-), Metabolic Activation: RAT, LIVER, S-9, AROCLOR 1242 AND 1254 (2:1), Method: SUSPENSION/PLATE): active; positive

O=C1C=C(c2nnc(NC(=O)c3ccccc3)s2)C(=O)C=C1Nc1ccc([N+](=O)[O-])cc1
mutagenic call [3]: active; positive

Cc1ccccc1OCC(O)CNCCOc1ccc(C(N)=O)cc1 (stereo not given)
mutagenic call [1]: inactive; negative | mutagenic call [2]: inactive; negative | mutagenic call [3]: inactive; negative | mutagenic call [4]: inactive; negative

O.O.O=C([O-])C(=O)[O-].O=C([O-])C(=O)[O-].[K+].[K+].[Pt+2]
mutagenic call (Test System: AMES SALMONELLA TYPHIMURIUM, Strain/Indicator: TA98, Metabolic Activation: NONE, Method: PREINCUBATION): inactive; negative | mutagenic call (Test System: AMES SALMONELLA TYPHIMURIUM, Strain/Indicator: TA98, Metabolic Activation: RAT, LIVER, S-9, AROCLOR 1254, Method: PREINCUBATION): inactive; negative | mutagenic call (Test System: AMES SALMONELLA TYPHIMURIUM, Strain/Indicator: TA100, Metabolic Activation: NONE, Method: PREINCUBATION): inactive; negative | mutagenic call (Test System: AMES SALMONELLA TYPHIMURIUM, Strain/Indicator: TA100, Metabolic Activation: RAT, LIVER, S-9, AROCLOR 1254, Method: PREINCUBATION): inactive; negative

CN(C)Nc1ccn([C@@H]2O[C@H](CO)[C@@H](O)[C@H]2O)c(=O)n1
mutagenic call (Test System: CHINESE HAMSTER V-79, Strain/Indicator: V-79/6-THIOGUANINE, Metabolic Activation: NONE, Method: REPLATING): inactive; negative

CC(C)N(C(=O)SC/C(Cl)=C/Cl)C(C)C
mutagenic call [1]: inactive; negative | mutagenic call [2]: active; positive | mutagenic call [3]: inactive; negative | mutagenic call [4]: active; positive | mutagenic call [5]: inactive; negative | mutagenic call [6]: active; positive | mutagenic call [7]: inactive; negative | mutagenic call [8]: inactive; negative | mutagenic call [9]: inactive; negative | mutagenic call (Test System: AMES SALMONELLA TYPHIMURIUM, Strain/Indicator: TA1538, Metabolic Activation: RAT, LIVER, S-9, AROCLOR 1254, Method: STANDARD PLATE): inactive; negative

O=[N+]([O-])c1cc2cccc3c4ccccc4c4cccc1c4c23
mutagenic call (Test System: AMES SALMONELLA TYPHIMURIUM, Strain/Indicator: TA98, Metabolic Activation: NONE', Method: STANDARD PLATE): active; positive | mutagenic call [3]: active; positive

O=C(Nc1cccc([N+](=O)[O-])c1)c1csc([N+](=O)[O-])c1
mutagenic call [1]: active; positive | mutagenic call [3]: active; positive

c1ccc2c(c1)cnc1ccccc12
mutagenic call (Test System: AMES SALMONELLA TYPHIMURIUM, Strain/Indicator: TA98, Metabolic Activation: RAT, LIVER, S-9, PCB, Method: STANDARD PLATE): active; positive | mutagenic call (Test System: AMES SALMONELLA TYPHIMURIUM, Strain/Indicator: TA100, Metabolic Activation: RAT, LIVER, S-9, PCB, Method: STANDARD PLATE): active; positive

— PubChem BioAssay AID1259407 (Chemical Carcinogenesis Research Information System (CCRIS), 2018)
